Earlier results in patent publication US20110280855A1, “VITAMIN C COMPOSITIONS” (priority 2006, published 2011).

How the values were obtained:
[1] = system: murine neuroblastoma as well as melanoma cell lines; conditions: in vitro; dependent on the source of tumor cells
[2] = system: Normal lung tissue of mice; conditions: normal lung tissue of mice upon treatment

In the case of `O=C(O)CCCCC1CCSS1` (stereo not drawn) [alpha-lipoic acid], the “increase of GSH content compared to untreated controls” value [1] is given as 30-70% and the increase in glutathione [2] is given as “about 50%”.
